Data reported in the NIST ThermoML archive (doi:10.1021/acs.jced.7b00946).

Experiment: molar heat capacity at constant pressure
Settings: Gas, Flow calorimetry

C=C(F)C(F)(F)F [2,3,3,3-tetrafluoro-1-propene]
Settings | molar heat capacity at constant pressure [J/K/mol]
373.15 K, 3498 kPa | 410.55
373.15 K, 4114 kPa | 394.58
373.15 K, 4160 kPa | 387.74
373.15 K, 4441 kPa | 288.53
373.15 K, 4642 kPa | 273.7
373.15 K, 4921 kPa | 245.19
373.15 K, 5047 kPa | 238.35
373.15 K, 5955 kPa | 210.98
373.15 K, 6023 kPa | 210.98
373.15 K, 8020 kPa | 187.03
373.15 K, 8021 kPa | 188.17
373.15 K, 8024 kPa | 188.17
393.15 K, 4039 kPa | 218.96
393.15 K, 4040 kPa | 217.82
393.15 K, 4943 kPa | 345.55
393.15 K, 4944 kPa | 339.84
393.15 K, 5417 kPa | 322.74
393.15 K, 5958 kPa | 278.26
393.15 K, 6022 kPa | 275.98
393.15 K, 7949 kPa | 205.27
393.15 K, 8043 kPa | 205.27
393.15 K, 10032 kPa | 188.17
413.15 K, 4015 kPa | 173.34
413.15 K, 4989 kPa | 207.56
413.15 K, 5045 kPa | 208.7
413.15 K, 6037 kPa | 244.05
413.15 K, 6963 kPa | 245.19
413.15 K, 6965 kPa | 241.77
413.15 K, 8042 kPa | 228.08
413.15 K, 8043 kPa | 228.08
413.15 K, 10030 kPa | 201.85
